In patent publication US12077503B2, “Substituted cyclic amides and their use as herbicides” (FMC CORPORATION, priority 2015, dated 2024):

Columns and labels:
Format in all cases: in vivo
[1] = system: Kochia (Kochia scoparia); test: Test C postemergence; conditions: scale 0 to 100, 0 no effect, 100 complete control
Procedure, shortened: (§1)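 Visual rating, 0–100 scale (0 = no effect, 100 = complete control) versus controls, 13–15 d after treatment. Compounds in non-phytotoxic solvent plus surfactant; applied preemergence to seeds in loam/sand soil or postemergence to 1- to 4-leaf plants (2–18 cm) in peat/vermiculite medium; greenhouse-held.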

[2] = system: foxtail, giant (giant foxtail, Setaria faberii); test: Test C postemergence; conditions: scale 0 to 100, 0 no effect, 100 complete control
Procedure, shortened: as §1

[3] = system: Galium (catchweed bedstraw, Galium aparine); test: Test C postemergence; conditions: scale 0 to 100, 0 no effect, 100 complete control
Procedure, shortened: as §1

[4] = system: wheat (winter wheat, Triticum aestivum); test: Test C postemergence; conditions: scale 0 to 100, 0 no effect, 100 complete control
Procedure, shortened: as §1

[5] = system: oilseed rape (Brassica napus); test: Test C postemergence; conditions: scale 0 to 100, 0 no effect, 100 complete control
Procedure, shortened: as §1

[6] = system: corn (Zea mays); test: Test C postemergence; conditions: scale 0 to 100, 0 no effect, 100 complete control
Procedure, shortened: as §1

[7] = system: ryegrass, Italian (Italian ryegrass, Lolium multiflorum); test: Test C postemergence; conditions: scale 0 to 100, 0 no effect, 100 complete control
Procedure, shortened: as §1

[8] = system: giant foxtail (Setaria faberi); test: Test G Post-Emergence Protocol
Method: (§2) Seeds of corn (Zea mays), giant foxtail (Setaria faberi), barnyardgrass (Echinochloa crus-galli), ivy-leaved morning glory (Ipomoea hederacea), redroot pigweed (Amaranthus retroflexus) and velvetleaf (Abutilon theophrasti) were sown in standard soil in pots. After cultivation for 8 days under controlled conditions in a glasshouse (at 24/16° C., day/night; 14 hours light; 65% humidity), the plants were sprayed with an aqueous spray solution derived from the formulation of the technical active ingredient in acetone/water (50:50) solution containing 0.5% Tween 20 (polyoxyethylene sorbitan monolaurate, CAS RN 9005-64-5) to give a final dose of 15.625, 62.5 or 250 g/ha of test compound.
(§3) The test plants were then grown on under controlled conditions in a glasshouse (at 24/16° C., day/night; 14 hours light; 65% humidity) and watered twice daily. After 13 days the test was evaluated (100=total damage to plant; 0=no damage to plant). A dash (-) means no test result.

[9] = system: ivy-leaved morning glory (Ipomoea hederacea); test: Test G Post-Emergence Protocol
Method: as §2, §3

[10] = system: redroot pigweed (Amaranthus retroflexus); test: Test G Post-Emergence Protocol
Method: as §2, §3

[11] = system: velvetleaf (Abutilon theophrasti); test: Test G Post-Emergence Protocol
Method: as §2, §3

[12] = system: corn (Zea mays); test: Test G Post-Emergence Protocol
Method: as §2, §3

[13] = system: barnyardgrass (Echinochloa crus-galli); test: Test G Post-Emergence Protocol
Method: as §2, §3

[14] = 15.625 g ai/ha, evaluated after 13 days (100=total damage to plant; 0=no damage to plant)
[15] = 62.5 g ai/ha, evaluated after 13 days
[16] = 250 g ai/ha, evaluated after 13 days

Compound: O=C1NCC(c2ccc3c(c2)OC(F)(F)O3)C1C(=O)Nc1cccc(F)c1F (centres unmarked) [Compound 635]
- Plant response rating, Kochia ([1]; 31 g ai/ha): 40
- Plant response rating, Kochia ([1]; 62 g ai/ha): 20
- Plant response rating, Kochia ([1]; 125 g ai/ha): 50
- Plant response rating, Kochia ([1]; 250 g ai/ha): 60
- Plant response rating, Foxtail, Giant ([2]; 31 g ai/ha): 15
- Plant response rating, Foxtail, Giant ([2]; 62 g ai/ha): 30
- Plant response rating, Foxtail, Giant ([2]; 125 g ai/ha): 50
- Plant response rating, Foxtail, Giant ([2]; 250 g ai/ha): 60
- Plant response rating, Galium ([3]; 31 g ai/ha): 50
- Plant response rating, Galium ([3]; 62 g ai/ha): 50
- Plant response rating, Galium ([3]; 125 g ai/ha): 60
- Plant response rating, Galium ([3]; 250 g ai/ha): 55
- Plant response rating, Wheat ([4]; 31 g ai/ha): 0
- Plant response rating, Wheat ([4]; 62 g ai/ha): 0
- Plant response rating, Wheat ([4]; 125 g ai/ha): 0
- Plant response rating, Wheat ([4]; 250 g ai/ha): 5
- Plant response rating, Oilseed Rape ([5]; 31 g ai/ha): 50
- Plant response rating, Oilseed Rape ([5]; 62 g ai/ha): 45
- Plant response rating, Oilseed Rape ([5]; 125 g ai/ha): 10
- Plant response rating, Oilseed Rape ([5]; 250 g ai/ha): 80
- Plant response rating, Corn ([6]; 31 g ai/ha): 0
- Plant response rating, Corn ([6]; 62 g ai/ha): 0
- Plant response rating, Corn ([6]; 125 g ai/ha): 5
- Plant response rating, Corn ([6]; 250 g ai/ha): 40
- Plant response rating, Ryegrass, Italian ([7]; 31 g ai/ha): 0
- Plant response rating, Ryegrass, Italian ([7]; 62 g ai/ha): 0
- Plant response rating, Ryegrass, Italian ([7]; 125 g ai/ha): 15
- Plant response rating, Ryegrass, Italian ([7]; 250 g ai/ha): 20

Compound: CN1CC(c2ccc(F)c(F)c2)C(C(=O)Nc2ccccc2C(F)(F)F)C1=O (centres unmarked) [Compound 641]
- Plant response rating, Kochia ([1]; 31 g ai/ha): 0
- Plant response rating, Kochia ([1]; 62 g ai/ha): 0
- Plant response rating, Kochia ([1]; 125 g ai/ha): 0
- Plant response rating, Kochia ([1]; 250 g ai/ha): 40
- Plant response rating, Foxtail, Giant ([2]; 31 g ai/ha): 0
- Plant response rating, Foxtail, Giant ([2]; 62 g ai/ha): 10
- Plant response rating, Foxtail, Giant ([2]; 125 g ai/ha): 65
- Plant response rating, Foxtail, Giant ([2]; 250 g ai/ha): 80
- Plant response rating, Galium ([3]; 31 g ai/ha): 40
- Plant response rating, Galium ([3]; 62 g ai/ha): 60
- Plant response rating, Galium ([3]; 125 g ai/ha): 60
- Plant response rating, Galium ([3]; 250 g ai/ha): 65
- Plant response rating, Wheat ([4]; 31 g ai/ha): 0
- Plant response rating, Wheat ([4]; 62 g ai/ha): 0
- Plant response rating, Wheat ([4]; 125 g ai/ha): 0
- Plant response rating, Wheat ([4]; 250 g ai/ha): 0
- Plant response rating, Oilseed Rape ([5]; 31 g ai/ha): 20
- Plant response rating, Oilseed Rape ([5]; 62 g ai/ha): 45
- Plant response rating, Oilseed Rape ([5]; 125 g ai/ha): 45
- Plant response rating, Oilseed Rape ([5]; 250 g ai/ha): 55
- Plant response rating, Corn ([6]; 31 g ai/ha): 0
- Plant response rating, Corn ([6]; 62 g ai/ha): 0
- Plant response rating, Corn ([6]; 125 g ai/ha): 0
- Plant response rating, Corn ([6]; 250 g ai/ha): 10
- Plant response rating, Ryegrass, Italian ([7]; 31 g ai/ha): 0
- Plant response rating, Ryegrass, Italian ([7]; 62 g ai/ha): 0
- Plant response rating, Ryegrass, Italian ([7]; 125 g ai/ha): 10
- Plant response rating, Ryegrass, Italian ([7]; 250 g ai/ha): 10

Compound: CN1C[C@H](c2cccc(C(F)(F)F)c2)[C@@H](C(=O)Nc2cccnc2F)C1=O [Compound 1397]
- pest or weed control at 15.625 g/ha ([8]; Setaria faberi, post-emergence, 312 h, 15.625 g ai/ha, evaluated after 13 days (100=total damage to plant; 0=no damage to plant), read-out: Foxtail, Giant damage rating): 80%
- pest or weed control at 62.5 g/ha ([8]; Setaria faberi, post-emergence, 312 h, 62.5 g ai/ha, evaluated after 13 days, read-out: Foxtail, Giant damage rating (100=total damage to plant; 0=no damage to plant)): 80%
- pest or weed control at 250 g/ha ([8]; Setaria faberi, post-emergence, 312 h, 250 g ai/ha, evaluated after 13 days, read-out: damage to plant, Foxtail, Giant (100=total damage to plant; 0=no damage to plant)): 80%
- pest or weed control at 15.625 g/ha ([9]; Ipomoea, post-emergence, 312 h, 15.625 g ai/ha, evaluated after 13 days (100=total damage to plant; 0=no damage to plant), read-out: Morningglory, Ivy-leaved damage rating): 60%
- pest or weed control at 62.5 g/ha ([9]; Ipomoea, post-emergence, 312 h, 62.5 g ai/ha, evaluated after 13 days, read-out: Morningglory, Ivy-leaved damage rating (100=total damage to plant; 0=no damage to plant)): 60%
- pest or weed control at 250 g/ha ([9]; Ipomoea, post-emergence, 312 h, 250 g ai/ha, evaluated after 13 days, read-out: damage to plant, Morningglory, Ivy-leaved (100=total damage to plant; 0=no damage to plant)): 70%
- pest or weed control at 15.625 g/ha ([10]; Amaranthus retroflexus, post-emergence, 312 h, 15.625 g ai/ha, evaluated after 13 days (100=total damage to plant; 0=no damage to plant), read-out: Pigweed, Redroot damage rating): 0%
- pest or weed control at 62.5 g/ha ([10]; Amaranthus retroflexus, post-emergence, 312 h, 62.5 g ai/ha, evaluated after 13 days, read-out: Pigweed, Redroot damage rating (100=total damage to plant; 0=no damage to plant)): 30%
- pest or weed control at 250 g/ha ([10]; Amaranthus retroflexus, post-emergence, 312 h, 250 g ai/ha, evaluated after 13 days, read-out: damage to plant, Pigweed, Redroot (100=total damage to plant; 0=no damage to plant)): 60%
- pest or weed control at 15.625 g/ha ([11]; Abutilon theophrasti, post-emergence, 312 h, 15.625 g ai/ha, evaluated after 13 days (100=total damage to plant; 0=no damage to plant), read-out: Velvetleaf damage rating): 0%
- pest or weed control at 62.5 g/ha ([11]; Abutilon theophrasti, post-emergence, 312 h, 62.5 g ai/ha, evaluated after 13 days, read-out: Velvetleaf damage rating (100=total damage to plant; 0=no damage to plant)): 10%
- pest or weed control at 250 g/ha ([11]; Abutilon theophrasti, post-emergence, 312 h, 250 g ai/ha, evaluated after 13 days, read-out: damage to plant, Velvetleaf (100=total damage to plant; 0=no damage to plant)): 40%
- plant injury at 15.625 g/ha ([12]; Zea mays, post-emergence, 312 h, 15.625 g ai/ha, evaluated after 13 days (100=total damage to plant; 0=no damage to plant), read-out: Corn damage rating): 80%
- plant injury at 62.5 g/ha ([12]; Zea mays, post-emergence, 312 h, 62.5 g ai/ha, evaluated after 13 days, read-out: Corn damage rating (100=total damage to plant; 0=no damage to plant)): 80%
- plant injury at 250 g/ha ([12]; Zea mays, post-emergence, 312 h, 250 g ai/ha, evaluated after 13 days, read-out: damage to plant, Corn (100=total damage to plant; 0=no damage to plant)): 80%
- pest or weed control at 15.625 g/ha ([13]; Echinochloa crus-galli, post-emergence, 312 h, 15.625 g ai/ha, evaluated after 13 days (100=total damage to plant; 0=no damage to plant), read-out: Barnyardgrass damage rating): 80%
- pest or weed control at 62.5 g/ha ([13]; Echinochloa crus-galli, post-emergence, 312 h, 62.5 g ai/ha, evaluated after 13 days, read-out: Barnyardgrass damage rating (100=total damage to plant; 0=no damage to plant)): 80%
- pest or weed control at 250 g/ha ([13]; Echinochloa crus-galli, post-emergence, 312 h, 250 g ai/ha, evaluated after 13 days, read-out: damage to plant, Barnyardgrass (100=total damage to plant; 0=no damage to plant)): 80%

Compound: CN1C[C@H](c2ccc(C(F)(F)F)cc2)[C@@H](C(=O)Nc2cccc(F)n2)C1=O [Compound 1400]
- Foxtail, Giant damage rating [8, 14]: 60
- Foxtail, Giant damage rating (100=total damage to plant; 0=no damage to plant) [8, 15]: 70
- damage to plant, Foxtail, Giant (100=total damage to plant; 0=no damage to plant) [8, 16]: 70
- Morningglory, Ivy-leaved damage rating [9, 14]: 0
- Morningglory, Ivy-leaved damage rating (100=total damage to plant; 0=no damage to plant) [9, 15]: 0
- damage to plant, Morningglory, Ivy-leaved (100=total damage to plant; 0=no damage to plant) [9, 16]: 0
- Pigweed, Redroot damage rating [10, 14]: 20
- Pigweed, Redroot damage rating (100=total damage to plant; 0=no damage to plant) [10, 15]: 50
- damage to plant, Pigweed, Redroot (100=total damage to plant; 0=no damage to plant) [10, 16]: 60
- Velvetleaf damage rating [11, 14]: 10
- Velvetleaf damage rating (100=total damage to plant; 0=no damage to plant) [11, 15]: 10
- damage to plant, Velvetleaf (100=total damage to plant; 0=no damage to plant) [11, 16]: 30
- Corn damage rating [12, 14]: 10
- Corn damage rating (100=total damage to plant; 0=no damage to plant) [12, 15]: 20
- damage to plant, Corn (100=total damage to plant; 0=no damage to plant) [12, 16]: 60
- Barnyardgrass damage rating [13, 14]: 50
- Barnyardgrass damage rating (100=total damage to plant; 0=no damage to plant) [13, 15]: 70
- damage to plant, Barnyardgrass (100=total damage to plant; 0=no damage to plant) [13, 16]: 70
